Experimental data reported in patent US20250228831A1, “METHOD TO PREVENT AND TREAT GLAUCOMA BY CALCIUM CHANNEL BLOCKERS, ANGIOTENSIN CONVERTING ENZYME INHIBITORS, AND ANGIOTENSIN RECEPTOR BLOCKERS” (priority 2022, published 2025).

Assays:
Format in all cases: in vivo, human
[1] = tested on: glaucoma; experiment: Treatment of a patient diagnosed with glaucoma, one eye treated and the other left untreated
Description: (§1) A patient is diagnosed with glaucoma.
A patient is diagnosed with glaucoma. A composition comprising the ACE inhibitor enalapril is directly applied to the vitreous surface of one eye while the other eye is left untreated.
A patient is diagnosed with glaucoma. A composition comprising the angiotensin receptor blocker losartan is directly applied to the vitreous surface of one eye while the other eye is left untreated.
as §1
A patient is diagnosed with glaucoma. A composition comprising the ACE inhibitor enalapril is applied to the eye by intravitreal or intraocular injection while the other eye is left untreated.
A patient is diagnosed with glaucoma. A composition comprising the angiotensin receptor blocker losartan is applied to the eye by intravitreal or intraocular injection while the other eye is left untreated.

[2] = tested on: glaucoma; experiment: Prevention of recurrence in a patient successfully treated for glaucoma, one eye treated and the other left untreated; settings: untreated eye shows signs of recurrence
Description: A composition comprising the ACE inhibitor enalapril is directly applied to the vitreous surface of one eye while the other eye is left untreated.
A composition comprising the angiotensin receptor blocker losartan is directly applied to the vitreous surface of one eye while the other eye is left untreated.
A composition comprising the ACE inhibitor enalapril is applied to the eye by intravitreal or intraocular injection while the other eye is left untreated.
A composition comprising the angiotensin receptor blocker losartan is applied to the eye by intravitreal or intraocular injection while the other eye is left untreated.

[3] = tested on: primary form of glaucoma; experiment: Ramiprilat formulation given to the eye of a patient with a primary form of glaucoma
Protocol: In this example, a patient with a primary form of glaucoma is administered a topical formulation comprising ramiprilat to the eye. […] The patient's primary form of glaucoma is therefore treated by the […] formulation.
In this example, a patient with a primary form of glaucoma is administered an injectable formulation comprising ramiprilat to the posterior chamber of the eye. […] The patient's primary form of glaucoma is therefore treated by the […] formulation.

[4] = composition applied by intravitreal or intraocular injection
[5] = composition directly applied to the vitreous surface of one eye
[6] = injectable formulation to the posterior chamber of the eye

| Molecule | symptoms of glaucoma, treated eye versus untreated eye [1, 4] | symptoms of glaucoma, treated eye versus untreated eye [1, 5] | recurrence of glaucoma, treated eye versus untreated eye [2, 4] | recurrence of glaucoma, treated eye versus untreated eye [2, 5] | capillary networks and capillary blood supply to the eye [3, 6] | intraocular pressure [3, 6] | optic nerve [3, 6] | capillary networks and capillary blood supply to the eye ([3]; topical formulation to the eye) | intraocular pressure ([3]; topical formulation to the eye) | optic nerve ([3]; topical formulation to the eye) |
| --- | --- | --- | --- | --- | --- | --- | --- | --- | --- | --- |
| CCOC(=O)[C@H](CCc1ccccc1)N[C@@H](C)C(=O)N1CCC[C@H]1C(=O)O [enalapril] | reduced symptoms of glaucoma | reduced symptoms of glaucoma | not develop glaucoma | not develop glaucoma |  |  |  |  |  |  |
| CCCCc1nc(Cl)c(CO)n1Cc1ccc(-c2ccccc2-c2nn[nH]n2)cc1 [losartan] | reduced symptoms of glaucoma | reduced symptoms of glaucoma | not develop glaucoma | not develop glaucoma |  |  |  |  |  |  |
| Ramiprilat |  |  |  |  | grows capillary networks and increases the capillary blood supply | reduction in intraocular pressure | repair to the optic nerve | grows capillary networks and increases the capillary blood supply | reduction in intraocular pressure | repair to the optic nerve |
